Measurements from ChEMBL document CHEMBL5715954, “Silencing c-Myc translation as a therapeutic strategy through targeting PI3Kδ and CK1ε in hematological malignancies” (Blood, 2017).

Columns and labels:
Design in all cases: scale not given: the % may be the effect or the level left
[1] = molecular target: Casein kinase I isoform delta (Homo sapiens) (UniProt P48730); experiment: Inhibition of human CK1delta assessed as enzyme activity at 1 uM using KRRRAL[pS]VASLPGL as substrate preincubated for 20 mins followed by [gamma-33P]-ATP addition and measured after 120 mins by radiometric Hot-SpotSM Kinase assay relative to control
[2] = molecular target: Casein kinase I isoform epsilon (Homo sapiens, UniProt P49674); experiment: Inhibition of human CK1epsilon assessed as enzyme activity at 1 uM using KRRRAL[pS]VASLPGL as substrate preincubated for 20 mins followed by [gamma-33P]-ATP addition and measured after 120 mins by radiometric Hot-SpotSM Kinase assay relative to control
[3] = molecular target: Mitogen-activated protein kinase 8 (Homo sapiens) (UniProt P45983); experiment: Inhibition of human JNK1-alpha1 assessed as enzyme activity at 1 uM using ATF2 as substrate preincubated for 20 mins followed by [gamma-33P]-ATP addition and measured after 120 mins by radiometric Hot-SpotSM Kinase assay relative to control
[4] = molecular target: T1, Serine/threonine-protein kinase 4 (Homo sapiens) (UniProt Q13043); experiment: Inhibition of human MST1 assessed as enzyme activity at 1 uM using KKSRGDYMTMQIG as substrate preincubated for 20 mins followed by [gamma-33P]-ATP addition and measured after 120 mins by radiometric Hot-SpotSM Kinase assay relative to control
T1 sequence (whole entry): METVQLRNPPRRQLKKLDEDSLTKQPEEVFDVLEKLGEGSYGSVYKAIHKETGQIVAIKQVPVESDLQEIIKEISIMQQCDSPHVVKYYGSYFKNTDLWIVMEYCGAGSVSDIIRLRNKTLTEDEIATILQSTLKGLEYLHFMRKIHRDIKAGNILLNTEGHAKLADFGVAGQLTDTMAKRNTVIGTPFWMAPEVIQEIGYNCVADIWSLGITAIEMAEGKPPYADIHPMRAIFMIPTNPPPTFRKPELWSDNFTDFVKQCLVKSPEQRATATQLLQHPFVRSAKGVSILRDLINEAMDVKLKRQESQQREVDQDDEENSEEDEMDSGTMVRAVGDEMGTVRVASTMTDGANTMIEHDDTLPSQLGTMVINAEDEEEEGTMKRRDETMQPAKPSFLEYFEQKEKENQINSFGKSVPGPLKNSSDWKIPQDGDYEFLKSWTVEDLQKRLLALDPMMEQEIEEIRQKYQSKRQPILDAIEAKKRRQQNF

[5] = molecular target: T2, Serine/threonine-protein kinase D1 (Homo sapiens) (UniProt Q15139); experiment: Inhibition of human PKCmu assessed as enzyme activity at 1 uM using KKLNRTLSVA as substrate preincubated for 20 mins followed by [gamma-33P]-ATP addition and measured after 120 mins by radiometric Hot-SpotSM Kinase assay relative to control
T2 sequence (whole entry): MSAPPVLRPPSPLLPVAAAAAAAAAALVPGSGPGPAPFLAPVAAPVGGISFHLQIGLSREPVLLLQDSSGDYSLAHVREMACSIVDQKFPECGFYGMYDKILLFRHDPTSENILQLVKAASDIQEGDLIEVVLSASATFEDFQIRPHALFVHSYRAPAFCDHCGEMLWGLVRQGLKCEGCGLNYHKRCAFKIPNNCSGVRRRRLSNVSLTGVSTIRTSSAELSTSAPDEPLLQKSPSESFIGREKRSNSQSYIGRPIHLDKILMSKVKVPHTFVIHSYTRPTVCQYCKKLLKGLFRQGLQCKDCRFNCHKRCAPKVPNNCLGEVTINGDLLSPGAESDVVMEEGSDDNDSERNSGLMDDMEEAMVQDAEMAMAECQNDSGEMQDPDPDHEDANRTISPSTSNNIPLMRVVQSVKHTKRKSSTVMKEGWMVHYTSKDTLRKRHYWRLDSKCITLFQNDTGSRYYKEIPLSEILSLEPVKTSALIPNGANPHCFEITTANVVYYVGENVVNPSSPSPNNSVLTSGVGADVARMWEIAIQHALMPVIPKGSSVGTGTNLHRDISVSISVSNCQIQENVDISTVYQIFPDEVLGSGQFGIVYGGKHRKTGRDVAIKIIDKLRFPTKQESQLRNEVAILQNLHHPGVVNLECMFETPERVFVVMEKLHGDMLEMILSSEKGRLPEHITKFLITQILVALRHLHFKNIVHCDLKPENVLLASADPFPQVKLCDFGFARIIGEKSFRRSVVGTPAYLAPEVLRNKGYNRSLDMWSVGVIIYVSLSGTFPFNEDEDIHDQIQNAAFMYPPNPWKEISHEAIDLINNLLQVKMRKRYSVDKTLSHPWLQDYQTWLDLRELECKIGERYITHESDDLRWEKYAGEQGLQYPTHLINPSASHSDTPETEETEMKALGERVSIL

[6] = molecular target: Ribosomal protein S6 kinase alpha-1 (Homo sapiens) (UniProt Q15418); experiment: Inhibition of human RSK1 assessed as enzyme activity at 1 uM using KKLNRTLSVA as substrate preincubated for 20 mins followed by [gamma-33P]-ATP addition and measured after 120 mins by radiometric Hot-SpotSM Kinase assay relative to control
[7] = molecular target: T3, Serine/threonine-protein kinase tousled-like 1 (Homo sapiens) (UniProt Q9UKI8); experiment: Inhibition of human TLK1 assessed as enzyme activity at 1 uM using histone H3 as substrate preincubated for 20 mins followed by [gamma-33P]-ATP addition and measured after 120 mins by radiometric Hot-SpotSM Kinase assay relative to control
T3 sequence (whole entry): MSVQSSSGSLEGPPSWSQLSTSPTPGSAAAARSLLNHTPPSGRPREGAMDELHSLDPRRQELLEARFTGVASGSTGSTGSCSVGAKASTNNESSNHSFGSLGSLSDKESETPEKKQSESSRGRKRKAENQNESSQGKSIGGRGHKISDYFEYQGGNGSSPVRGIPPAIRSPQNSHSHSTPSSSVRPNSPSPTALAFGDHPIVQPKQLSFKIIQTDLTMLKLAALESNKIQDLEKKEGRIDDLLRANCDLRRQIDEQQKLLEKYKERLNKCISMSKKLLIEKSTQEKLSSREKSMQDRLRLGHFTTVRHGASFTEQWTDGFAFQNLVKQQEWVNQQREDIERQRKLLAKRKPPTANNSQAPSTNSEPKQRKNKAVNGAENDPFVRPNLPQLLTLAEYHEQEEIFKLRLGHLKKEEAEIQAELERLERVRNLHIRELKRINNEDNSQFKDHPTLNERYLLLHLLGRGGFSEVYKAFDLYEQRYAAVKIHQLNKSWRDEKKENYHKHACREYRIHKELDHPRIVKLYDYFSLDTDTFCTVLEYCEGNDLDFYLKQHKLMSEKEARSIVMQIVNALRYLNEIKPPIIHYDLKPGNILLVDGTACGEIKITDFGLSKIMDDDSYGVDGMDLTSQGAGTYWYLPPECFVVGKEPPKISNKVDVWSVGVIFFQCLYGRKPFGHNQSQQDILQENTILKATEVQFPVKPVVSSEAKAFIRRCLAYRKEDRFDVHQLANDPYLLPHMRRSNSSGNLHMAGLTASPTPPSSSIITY

Chain of Casein kinase I isoform epsilon (P49674 whole entry, looked up, canonical isoform): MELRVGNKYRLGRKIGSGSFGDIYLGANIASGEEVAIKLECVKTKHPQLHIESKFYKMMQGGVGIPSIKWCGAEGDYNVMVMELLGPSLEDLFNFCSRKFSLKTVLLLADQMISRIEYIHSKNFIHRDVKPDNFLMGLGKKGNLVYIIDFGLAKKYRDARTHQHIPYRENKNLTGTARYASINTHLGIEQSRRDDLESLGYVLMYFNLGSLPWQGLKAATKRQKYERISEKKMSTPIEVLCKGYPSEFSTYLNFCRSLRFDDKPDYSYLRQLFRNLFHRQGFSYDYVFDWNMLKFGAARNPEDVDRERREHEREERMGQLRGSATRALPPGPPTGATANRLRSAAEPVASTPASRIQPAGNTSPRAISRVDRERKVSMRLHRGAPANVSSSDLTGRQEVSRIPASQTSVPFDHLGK
Chain of Casein kinase I isoform delta (Homo sapiens) (P48730 whole entry, looked up, canonical isoform): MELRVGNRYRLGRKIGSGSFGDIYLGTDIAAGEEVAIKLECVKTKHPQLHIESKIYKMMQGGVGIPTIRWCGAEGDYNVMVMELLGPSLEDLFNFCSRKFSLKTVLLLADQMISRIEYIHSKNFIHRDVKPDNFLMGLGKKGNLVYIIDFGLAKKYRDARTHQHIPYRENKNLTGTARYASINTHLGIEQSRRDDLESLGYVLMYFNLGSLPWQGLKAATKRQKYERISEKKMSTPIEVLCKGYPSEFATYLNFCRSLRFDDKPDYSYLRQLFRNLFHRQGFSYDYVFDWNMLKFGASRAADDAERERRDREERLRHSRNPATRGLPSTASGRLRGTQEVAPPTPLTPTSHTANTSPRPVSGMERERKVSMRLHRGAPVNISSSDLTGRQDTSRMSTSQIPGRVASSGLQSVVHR
Chain of Mitogen-activated protein kinase 8 (Homo sapiens) (P45983 whole entry): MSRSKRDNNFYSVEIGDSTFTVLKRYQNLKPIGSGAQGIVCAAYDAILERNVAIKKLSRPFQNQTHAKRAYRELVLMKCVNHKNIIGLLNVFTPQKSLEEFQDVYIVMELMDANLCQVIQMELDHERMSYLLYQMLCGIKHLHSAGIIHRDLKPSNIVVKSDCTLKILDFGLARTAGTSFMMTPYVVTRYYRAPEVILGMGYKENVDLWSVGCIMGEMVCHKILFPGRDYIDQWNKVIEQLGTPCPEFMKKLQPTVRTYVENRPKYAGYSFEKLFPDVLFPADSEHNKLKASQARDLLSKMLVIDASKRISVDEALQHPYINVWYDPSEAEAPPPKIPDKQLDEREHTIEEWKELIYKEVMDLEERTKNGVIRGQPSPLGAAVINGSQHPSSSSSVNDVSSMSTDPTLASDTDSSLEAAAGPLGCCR
Chain of Ribosomal protein S6 kinase alpha-1 (Homo sapiens) (Q15418 whole entry): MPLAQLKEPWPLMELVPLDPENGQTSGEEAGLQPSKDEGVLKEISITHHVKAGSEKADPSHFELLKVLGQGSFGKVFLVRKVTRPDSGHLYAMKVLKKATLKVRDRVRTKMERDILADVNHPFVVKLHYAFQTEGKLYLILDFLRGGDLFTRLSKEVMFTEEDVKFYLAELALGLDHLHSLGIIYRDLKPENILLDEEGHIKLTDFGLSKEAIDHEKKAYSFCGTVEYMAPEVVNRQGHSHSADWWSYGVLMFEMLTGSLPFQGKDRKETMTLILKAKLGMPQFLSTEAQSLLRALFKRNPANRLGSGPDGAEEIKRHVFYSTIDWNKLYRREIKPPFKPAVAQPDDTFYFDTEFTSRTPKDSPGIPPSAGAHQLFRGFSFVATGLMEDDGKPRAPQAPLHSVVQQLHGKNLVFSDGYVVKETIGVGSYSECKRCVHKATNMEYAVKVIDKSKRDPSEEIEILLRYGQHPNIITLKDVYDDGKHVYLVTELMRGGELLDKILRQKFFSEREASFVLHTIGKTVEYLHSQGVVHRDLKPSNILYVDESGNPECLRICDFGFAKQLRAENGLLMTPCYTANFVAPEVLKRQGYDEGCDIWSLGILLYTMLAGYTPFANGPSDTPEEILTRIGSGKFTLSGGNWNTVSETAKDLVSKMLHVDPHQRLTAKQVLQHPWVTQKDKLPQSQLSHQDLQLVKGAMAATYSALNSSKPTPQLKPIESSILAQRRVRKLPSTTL

With `CC[C@H](Nc1ncnc2[nH]cnc12)c1nc2cccc(F)c2c(=O)n1-c1ccccc1` the Activity [1] was 96.5%, the Activity [2] was 92.9% and the Activity [3] was 97.3%. For the same molecule, the Activity [4] was 89.8%, the Activity [5] was 92.3% and the Activity [6] was 101%. The Activity [7] was 100%.
Molecule `CC(C)Oc1ccc(-c2nn([C@@H](C)c3oc4ccc(F)cc4c(=O)c3-c3cccc(F)c3)c3ncnc(N)c23)cc1F` [UMBRALISIB] has an Activity [1] of 97.7%, an Activity [2] of 39.9% and an Activity [3] of 98.7%. It also gave an Activity [4] of 95.1%, an Activity [5] of 92.7% and an Activity [6] of 104%. For the same molecule, the Activity [7] was 102%.
Molecule `C[C@H](Nc1ncnc2nc[nH]c12)c1cc2cccc(Cl)c2c(=O)n1-c1ccccc1` has an Activity [1] of 97%, an Activity [2] of 90.9% and an Activity [3] of 101%. The Activity [4] was 94.1%, the Activity [5] was 96.1% and the Activity [6] was 100%. It also gave an Activity [7] of 105%.
